Laboratory results published in ChEMBL document CHEMBL1138450, “Carbonic anhydrase activators: activation of human isozymes I, II and IX with phenylsulfonylhydrazido l-histidine derivatives” (Bioorg Med Chem Lett, 2009).

Legend:
[1] = target: Carbonic anhydrase 1 (Homo sapiens) (UniProt P00915); test: Activation of human recombinant CA1 by stopped flow CO2 hydration assay
[2] = target: Carbonic anhydrase 2 (Homo sapiens) (UniProt P00918); test: Activation of human recombinant CA2 by stopped flow CO2 hydration assay
[3] = target: Carbonic anhydrase 9 (Homo sapiens) (UniProt Q16790); test: Activation of human recombinant CA9 catalytic domain by stopped flow CO2 hydration assay

Chain of Carbonic anhydrase 1 (Homo sapiens) (P00915 2-261 limits assumed): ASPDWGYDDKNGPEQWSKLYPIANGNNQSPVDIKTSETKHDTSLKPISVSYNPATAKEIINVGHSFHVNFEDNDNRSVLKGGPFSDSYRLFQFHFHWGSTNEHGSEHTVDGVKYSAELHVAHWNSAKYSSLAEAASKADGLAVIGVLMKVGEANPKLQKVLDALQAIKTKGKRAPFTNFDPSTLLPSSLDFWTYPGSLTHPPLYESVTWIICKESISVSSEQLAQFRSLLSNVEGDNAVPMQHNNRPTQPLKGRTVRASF

| Structure (SMILES) | KA [1] | KA [2] | KA [3] |
| --- | --- | --- | --- |
| N[C@@H](Cc1c[nH]cn1)C(=O)NNS(=O)(=O)c1c(F)c(F)c(F)c(F)c1F | 42.5 µM | 50.2 µM | 30.2 µM |
| N[C@@H](Cc1c[nH]cn1)C(=O)NNS(=O)(=O)c1ccc2ccccc2c1 | 63.8 µM | 18 µM | 24.1 µM |
| N[C@@H](Cc1c[nH]cn1)C(=O)NNS(=O)(=O)c1ccc(-c2ccccc2)cc1 | 33.1 µM | 51.7 µM | 28.5 µM |
| N[C@@H](Cc1c[nH]cn1)C(=O)NNS(=O)(=O)c1ccc(F)cc1 | 63.4 µM | 44.8 µM | 19.5 µM |
| N[C@@H](Cc1c[nH]cn1)C(=O)NNS(=O)(=O)c1ccc(Cl)cc1 | 70.1 µM | 6.53 µM | 35.4 µM |
| COc1ccc(S(=O)(=O)NNC(=O)[C@@H](N)Cc2c[nH]cn2)cc1 | 44.8 µM | 38 µM | 27.4 µM |
| CC(C)(C)c1ccc(S(=O)(=O)NNC(=O)[C@@H](N)Cc2c[nH]cn2)cc1 | 78.9 µM | 45.2 µM | 29.8 µM |
| N[C@@H](Cc1c[nH]cn1)C(=O)NNS(=O)(=O)c1ccc(I)cc1 | 76.3 µM | 0.21 µM | 14.1 µM |
| N#Cc1ccc(S(=O)(=O)NNC(=O)[C@@H](N)Cc2c[nH]cn2)cc1 | 40.3 µM | 28.7 µM | 17.8 µM |
| N[C@@H](Cc1c[nH]cn1)C(=O)NNS(=O)(=O)c1ccc([N+](=O)[O-])cc1 | 54.7 µM | 45.6 µM | 30.5 µM |
| N[C@@H](Cc1c[nH]cn1)C(=O)NNS(=O)(=O)c1ccc(C(F)(F)F)cc1 | 38.9 µM | 49.5 µM | 22.4 µM |
| N[C@@H](Cc1c[nH]cn1)C(=O)NNS(=O)(=O)c1ccc(Br)cc1 | 55.7 µM | 19.6 µM | 13.8 µM |
| Cc1ccc(S(=O)(=O)NNC(=O)[C@@H](N)Cc2c[nH]cn2)cc1 | 46.8 µM | 25 µM | 18.1 µM |
